Values quoted from earlier work, collected in patent publication US7014866B2, “High dose solid unit oral pharmaceutical dosage form of amorphous nelfinavir mesylate and process for making same” (Hoffmann-La Roche Inc., priority 2001, dated 2006).
Counter-ions that a name gives are not always drawn.

Conditions: water at pH less than or equal to 4

solubility in water: slightly soluble
SMILES: Cc1c(O)cccc1C(=O)N[C@@H](CSc1ccccc1)[C@H](O)CN1C[C@H]2CCCC[C@H]2C[C@H]1C(=O)NC(C)(C)C [Nelfinavir mesylate]
